In ChEMBL document CHEMBL5528068, “Structure-Activity Relationship Studies and Optimization of 4-Hydroxypyridones as GPR84 Agonists” (J Med Chem, 2024):
≈ marks a conversion by molar mass, not a printed value.

Columns and labels:
[1] = biological target: T1, G-protein coupled receptor 84 (Homo sapiens, UniProt Q9NQS5); assay: Agonist activity at GPR84 (unknown origin) expressed in HTLA cells assessed as beta-arrestin recruitment incubated for 1 day by PRESTO-Tango assay
[2] = Dissociation constant, pKa of compound by UV spectrophotometric analysis
[3] = Solubility in PBS at pH 7.4 incubated for 24 hrs by HPLC analysis
[4] = biological target: T1, G-protein coupled receptor 84; assay: Agonist activity at GPR84 (unknown origin) expressed in doxycycline induced Flp-In-T-REx-293 cells transfected with GalphaI preincubated for 15 mins in presence of IBMX followed by forskolin stimulation for 45 mins by time-resolved fluorescence assay
[5] = biological target: T1, G-protein coupled receptor 84; assay: Agonist activity at GPR84 (unknown origin) expressed in HEK293T cells expressing beta-arrestin 2-nanoluciferase incubated for 5 mins by beta-arrestin recruitment based BRET assay
[6] = biological target: T1, G-protein coupled receptor 84; assay: Agonist activity at GPR84 (unknown origin) expressed in Flp-In-T-REx-293 cells transfected with GalphaI incubated for 1 hr by Topcount scintillation counting method
[7] = biological target: T1, G-protein coupled receptor 84; assay: Displacement of [3H]140 from GPR84 (unknown origin) expressed in Flp-In-T-REx-293 cells transfected with GalphaI incubated for 1 hr by liquid scintillation spectrometry analysis

T1 sequence (Q9NQS5 whole entry): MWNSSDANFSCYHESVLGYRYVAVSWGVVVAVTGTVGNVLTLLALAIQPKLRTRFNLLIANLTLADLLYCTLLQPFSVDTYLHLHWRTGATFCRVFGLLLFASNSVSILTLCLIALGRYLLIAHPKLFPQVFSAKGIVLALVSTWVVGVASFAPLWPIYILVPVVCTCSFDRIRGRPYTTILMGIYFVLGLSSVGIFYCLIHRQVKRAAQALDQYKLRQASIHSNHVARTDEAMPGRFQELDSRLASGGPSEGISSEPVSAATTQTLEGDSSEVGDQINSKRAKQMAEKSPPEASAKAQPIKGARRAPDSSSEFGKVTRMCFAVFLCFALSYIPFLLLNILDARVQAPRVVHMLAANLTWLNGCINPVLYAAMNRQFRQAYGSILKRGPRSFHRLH

EC50 [1] | EC50 [4] | Compound | other results
0.427 nM |  | CCCCCCCCCCCc1cc(O)cc(=O)[nH]1 | 
0.0468 nM |  | CCCCCCCc1cc(O)cc(O)n1 | pKa [2]: 6.68
0.0275 nM |  | CCCCCCCCc1cc(O)cc(O)n1 | 
 |  | CCCCCCCCCc1cc(O)cc(O)n1 | solubility at 24 h [3]: 10 µM (≈ 2.37 µg/mL)
3.31 nM |  | CCCCCCCCNc1cc(O)cc(=O)[nH]1 | 
4.17 nM |  | O=c1cc(O)cc(CCCOc2ccccc2)[nH]1 | 
3240 nM |  | O=C1c2ccccc2C(=O)N1CCCCc1cc(O)cc(=O)[nH]1 | 
25.7 nM | 18.2 nM | CCCCc1ccc(-c2cc(O)cc(O)n2)cc1 | EC50 [5]: 1620 nM; EC50 [6]: 63.1 nM; pKa [2]: 8.04
23400 nM |  | CCCC(=O)NCCCCc1cc(O)cc(=O)[nH]1 | 
12.6 nM | 19.5 nM | CCCCCc1ccc(-c2cc(O)cc(=O)[nH]2)cc1 | EC50 [5]: 2630 nM; EC50 [6]: 26.3 nM
0.302 nM | 0.331 nM | CCCc1ccc(CCc2cc(O)cc(=O)[nH]2)cc1 | EC50 [5]: 214 nM; Ki [7]: 13.5 nM; EC50 [6]: 1.2 nM
4.47 nM |  | CCc1ccc(CCc2cc(O)cc(=O)[nH]2)cc1 | 
4270 nM |  | O=c1cc(O)cc(CCc2cccc(-c3ccccc3)c2)[nH]1 | 
 |  | O=c1cc(O)cc(CCc2ccccc2)[nH]1 | pKa [2]: 6.6
0.24 nM |  | CCCCCCCCCCc1cc(O)cc(=O)[nH]1 | 
11700 nM |  | Cc1nnc(-c2ccc(-c3cc(O)cc(=O)[nH]3)cc2)o1 | 
3.24 nM |  | CCCc1ccc(COc2cc(O)cc(=O)[nH]2)cc1 | 
1.05 nM | 15.8 nM | O=c1cc(O)cc(-c2ccc(Oc3ccccc3)nc2)[nH]1 | EC50 [5]: 263 nM; Ki [7]: 13.8 nM
389 nM |  | Cc1cccc(CCc2cc(O)cc(=O)[nH]2)c1 | 
44.7 nM | 15.8 nM | CCOc1ccc(CCc2cc(O)cc(=O)[nH]2)cc1 | EC50 [5]: 7240 nM; EC50 [6]: 33.1 nM
12.6 nM | 6.76 nM | CC(C)Cc1ccc(CCc2cc(O)cc(=O)[nH]2)cc1 | EC50 [5]: 912 nM; EC50 [6]: 12 nM
5010 nM | 1660 nM | O=c1cc(O)cc(CCc2ccc3c(c2)Cc2ccccc2-3)[nH]1 | EC50 [6]: 525 nM
5.75 nM | 14.5 nM | CCCCCCCC#Cc1cc(O)cc(=O)[nH]1 | EC50 [5]: 550 nM; EC50 [6]: 24 nM
11 nM |  | O=c1cc(O)cc(CCc2ccc(OC(F)(F)F)cc2)[nH]1 | 
13.8 nM |  | Cc1ccc(CCc2cc(O)cc(=O)[nH]2)cc1 | 
102 nM |  | O=c1cc(O)cc(-c2ccc(Oc3cncnc3)nc2)[nH]1 | 
1.32 nM |  | CCCCCCCOc1cc(O)cc(=O)[nH]1 | 
0.912 nM | 1.26 nM | O=c1cc(O)cc(-c2ccc(Oc3ccccc3)cc2)[nH]1 | EC50 [5]: 209 nM; Ki [7]: 14.8 nM; EC50 [6]: 4.27 nM
2.95 nM |  | CC(C)(C)c1ccc(CCc2cc(O)cc(=O)[nH]2)cc1 | 
